Results taken from US7772425B2, “Vitamin D receptor modulators” (Eli Lilly and Company, priority 2002, dated 2010).
“And” between values parts separate entries of the source, which are not always exact repeats. Equal entries are not always repeated. Where two headings read alike, the source gives them in different places.

Assays:
[1] = system: rat osteocalcin promoter; test: OCN (osteocalcin) promoter assay in RG-15 (ROS 17/2.8) cells; format: cell-based; details: 48 hr treatment, luciferase
Procedure: 3. The OCN (Osteocalcin) Promoter Assay
The OCN Promoter Assay is an indicator and marker for osteoporosis. […] Preferred assay results are less than 50 nM.
(3) Materials and Method for The OCN Promoter Assay:
The activation of osteocalcin by VDR ligands was evaluated in a rat osteoblast-like cell line RG-15 (ROS 17/2.8) stably expressing rat osteocalcin promoter fused with luciferase reporter gene. […] Confluent RG-15 cells maintained in DMEM/F-12 medium (3:1) containing 5% FBS, 300 μg/ml G418 and at 37° C. under 5% CO2/95% air atmosphere were trypsinized (0.25% trypsin) and plated into white opaque 96-well cell culture plates (25000 cells/well). After 24 hr, cells (in DMEM/F-12 medium+2% FBS) were treated with various concentrations of compounds, dissolved in DMSO. The final DMSO concentration remained at 0.01% (v/v). After 48 hr treatment, the medium was removed, cells were lysed with 50 μl of lysis buffer (From Luciferase reporter assay system, Roche Diagnostics, Indianapolis, Ind.) and assayed for luciferase activity using the Luciferase Reporter Gene Assay kit from Boehringer Mannheim as per manufacturer's specifications.

[2] = system: KERtr cells (Human skin keratinocyte); test: Keratinocyte proliferation assay; format: cell-based; details: BrdU incorporation, read-out: Kera. Prolif. IC50
Procedure: 5. The Keratinocyte Proliferation Assay
This Assay is indicative for the treatment of psoriasis.
(5) The Keratinocyte Proliferation Assay:
KERtr cells (Human skin keratinocyte transformed with a retrovirus vector, obtained from ATCC) were plated in 96-well flat-bottomed plates (3000 cells/well) in 100 μl keratinocyte serum free medium supplemented with bovine pituitary extract in the absence of EGF (Life Technologies, Rockville, Md.) and incubated at 37° C. for two days. The cells were treated with various concentrations of VDR ligands (ten-fold serial dilution from 10,000 nM to 0.1 nM in triplicate), dissolved in 100 μl keratinocyte serum free medium supplemented with bovine pituitary extract in the absence of EGF and incubated at 37° C. for 72 hr. BrdU (5-bromo-2′-deoxyuridine) incorporation was analyzed as a measure of DNA replication (Cell proliferation ELISA kit, Roche Diagnostics, Indianapolis, Ind.) and absorbance was measured at 405 nm. Potency values (IC50) values were determined as the concentration (nM) of compound that elicited a half-maximal response.

[3] = system: female DBF mice; test: Mouse hypercalcemia assay; format: in vivo; details: orally via gavage for 6 days; serum ionized calcium 6 hours after last dosing
From the text: 4. The Mouse Hypercalcemia Assay
(4) Materials and Method for The Mouse Hypercalcemia Assay: […]

[4] = Homo sapiens, Keratinocyte, 72 h

| Compound | EC50 ([1]; Rattus norvegicus, 48 h) [nM] | EC50 [1] | Mouse Hypercal [3] [µg/kg/day] | other results |
| --- | --- | --- | --- | --- |
| CCC(CC)(c1ccc(OCC(O)C(C)(C)C)c(C)c1)c1ccc(C(=O)OC)c(C)c1 (racemic) [Ex. 1, 3′-[4-(2-hydroxy-3,3-dimethylbutoxy)-3-methylphenyl]-3′-[4-methoxycarbonyl-3-methylphenyl]pentane] | 21 |  |  |  |
| CCC(CC)(c1ccc(OC(C)C(O)C(C)(C)C)c(C)c1)c1ccc(C(=O)O)c(C)c1 (racemic) [Ex. 28, 4-{1-Ethyl-1-[4-(2-hydroxy-1,3,3-trimethyl-butoxy)-3-methyl-phenyl]-propyl}-2-methyl-benzoic acid] | 106 | 84 nM |  | IC50 [2, 4]: 240 nM |
| CCC(CC)(c1ccc(C(=O)O)cc1)c1ccc(OCC(O)C(C)(C)C)c(Cl)c1 (racemic) [Ex. 35, 3′-[3-chloro-4-(2-hydroxy-3,3-dimethylbutoxy)phenyl]-3′-[4-carboxyphenyl]pentane] | 27 |  |  | IC50 [2, 4]: 40 nM |
| CCC(CC)(c1ccc(C(=O)O)c(C)c1)c1ccc(OCC(O)C(C)(C)C)c(Cl)c1 (racemic) [Ex. 38, 3′-[3-chloro-4-(2-hydroxy-3,3-dimethylbutoxy)phenyl]-3′-[3-methyl-4-(carboxy)phenyl]pentane] | 41 |  |  |  |
| CCC(CC)(c1ccc(OCC(O)C(C)(C)C)c(C)c1)c1ccc(C(=O)O)c(Cl)c1 (racemic) [Ex. 39, 3′-[3-methyl-4-(2-hydroxy-3,3-dimethylbutoxy)phenyl]-3′-(3-chloro-4-carboxyphenyl)pentane] | 74 | 61 nM |  | IC50 [2, 4]: 508 nM |
| CCC(CC)(c1ccc(CCC(O)C(C)(C)C)c(C)c1)c1ccc(C(=O)O)c(C)c1 (racemic) [Ex. 55, 3′-[4-(3-hydroxy-4,4-dimethylpentyl)-3-methylphenyl]-3′-[4-carboxyl-3-methylphenyl]pentane] | 6 |  |  |  |
| CCC(CC)(c1ccc(OCC(O)C(C)(C)C)c(C)c1)c1ccc(C(=O)O)c(C)c1 (single isomer, unassigned) [Ex. 3A] |  | 15 nM and 18 nM | 1000 |  |
| CCC(CC)(c1ccc(OCC(O)C(C)(C)C)c(C)c1)c1ccc(C(=O)O)c(C)c1 (single isomer, unassigned) [Ex. 3B] |  | 57 nM and 83 nM | 3000 |  |
| CCC(CC)(c1ccc(OCC(O)C(C)(C)C)c(C)c1)c1ccc(C(=O)OC)c(C)c1 (single isomer, unassigned) [Ex. 4A, 3′-[4-(2-hydroxy-3,3-dimethylbutoxy)-3-methylphenyl]-3′-[4-methoxycarbonyl-3-methylphenyl]pentane] |  | 3 nM |  |  |
| CCC(CC)(c1ccc(OCC(O)C(C)(C)C)c(C)c1)c1ccc(C(=O)OC)c(C)c1 (single isomer, unassigned) [Ex. 4B, 3′-[4-(2-hydroxy-3,3-dimethylbutoxy)-3-methylphenyl]-3′-[4-methoxycarbonyl-3-methylphenyl]pentane] |  | 15 nM |  |  |
| CCC(CC)(c1ccc(OC(C)C(O)C(C)(C)C)c(C)c1)c1ccc(C(=O)OC)c(C)c1 (single isomer, unassigned) [Ex. 10Da, 3′-[4-(2-hydroxy-1,3,3-trimethylbutoxy)-3-methylphenyl]-3′-[4-methoxycarbonyl-3-methylphenyl]pentane] |  |  |  | IC50 [2, 4]: 1000 nM |
| CCC(CC)(c1ccc(OC(C)C(O)C(C)(C)C)c(C)c1)c1ccc(C(=O)O)c(C)c1 (single isomer, unassigned) [Ex. 12] |  | 20 nM and 25 nM | 4000 |  |
| CCC(CC)(c1ccc(OCC(O)C(C)(C)C)c(C)c1)c1ccc(C(=O)Nc2nnn[nH]2)c(C)c1 (single isomer, unassigned) [Ex. 12b, 3′-[4-(2-hydroxy-3,3-dimethylbutoxy)-3-methylphenyl]-3′-[4-(tetrazol-5-ylaminocarbonyl)-3-methylphenyl]pentane] |  | 13 nM and 23 nM | 300 |  |
| CCC(CC)(c1ccc(OCC(O)C(C)(C)C)c(C)c1)c1ccc(C(=O)NCCS(C)(=O)=O)c(C)c1 (single isomer, unassigned) [Ex. 15B, 4-{1-ethyl-1-[4-(2-hydroxy-3,3-dimethylbutoxy)-3-methylphenyl]propyl}-N-(2-methanesulfonylethyl)-2-methylbenzamide] |  | 163 nM |  |  |
| CCC(CC)(c1ccc(OCC(O)C(C)(C)C)c(C)c1)c1ccc(C(=O)Nc2nnn[nH]2)c(C)c1 (single isomer, unassigned) [Ex. 27, 3′-[4-(2-hydroxy-3,3-dimethylbutoxy)-3-methylphenyl]-3′-[4-(tetrazol-5-ylaminocarbonyl)-3-methylphenyl]pentane] |  | 13 nM and 23 nM | 300 |  |
| CCC(CC)(c1ccc(OCC(O)C(C)(C)C)c(Cl)c1)c1ccc(C(=O)O)c(Cl)c1 (single isomer, unassigned) [Ex. 41, 3′-[3-chloro-4-(2-hydroxy-3,3-dimethyl-butoxy)phenyl]-3′-(3-chloro-4-carboxyphenyl)pentane] |  | 421 nM |  |  |
| CCC(CC)(c1ccc(OCC(O)C(C)(C)C)c(Cl)c1)c1ccc(C(=O)O)c(Cl)c1 (single isomer, unassigned) [Ex. 42, 3′-[3-chloro-4-(2-hydroxy-3,3-dimethyl-butoxy)phenyl]-3′-(3-chloro-4-carboxyphenyl)pentane] |  |  |  | IC50 [2, 4]: 50 nM |
| CCC(CC)(c1ccc(OC[C@@H](O)C(C)(C)C)c(C)c1)c1ccc(C(=O)NCCS(C)(=O)=O)c(C)c1 (stereo in doubt) [Ex. 14, 4-{1-ethyl-1-[4-(2-hydroxy-3,3-dimethylbutoxy)-3-methylphenyl]propyl}-N-(2-methanesulfonylethyl)-2-methylbenzamide] | 306 |  | 3000 |  |
| CCC(CC)(c1ccc(OC[C@@H](O)C(C)(C)C)c(C)c1)c1ccc(C(=O)NCC(=O)O)c(C)c1 (stereo in doubt) [Ex. 24, (4-{1-ethyl-1-[4-(2-hydroxy-3,3-dimethylbutoxy)-3-methylphenyl]-propyl}-2-methylbenzoylamino)acetic acid] | 0.2 |  |  |  |
| C=C1/C(=C\C=C2/CCC[C@]3(C)[C@@H]([C@H](C)CCCC(C)(C)O)CC[C@@H]23)C[C@@H](O)C[C@@H]1O [AA, 1α,25-dihydroxyvitamin D3, reference compound] |  |  | 0.06 |  |
| CCC(CC)(c1ccc(OCC(O)CO)c(C)c1)c1ccc(OCC(O)C(C)(C)C)c(C)c1 (stereo not shown) [BB, 3-(4-{1-Ethyl-1-[4-(2-hydroxy-3,3-dimethyl-butoxy)-3-methyl-phenyl]-propyl}-2-methyl-phenoxy)-propane-1,2-diol, reference compound] |  |  | 20 |  |
| Cc1cc(C2(c3ccc(OCC(=O)C(C)(C)C)c(C)c3)CCCCC2)ccc1OCC(=O)C(C)(C)C [CC, 1-(4-{1-[4-(3,3-Dimethyl-2-oxo-butoxy)-3-methyl-phenyl]-cyclohexyl}-2-methyl-phenoxy)-3,3-dimethyl-butan-2-one, reference compound] | > 1000 |  |  |  |
| CCC(CC)(c1ccc(OCC(=O)C(C)(C)C)c(C)c1)c1ccc(OC[C@H](O)C(C)(C)C)c(C)c1 [EE, reference compound] | 341 |  | 1000 |  |
| CCC(CC)(c1ccc(CNCCS(C)(=O)=O)c(C)c1)c1ccc(OCC(=O)C(C)(C)C)c(C)c1 [Ex. 13, 1-[4-(1-ethyl-1-{4-[(2-methanesulfonyl-ethylamino)-methyl]-3-methyl-phenyl}-propyl)-2-methyl-phenoxy]-3,3-dimethyl-butan-2-one] | 89 | 167 nM | 3000 |  |
| CCC(CC)(c1ccc(OCC(=O)C(C)(C)C)c(C)c1)c1ccc(C(=O)NCCS(C)(=O)=O)c(C)c1 [Ex. 16, 4-{1-[4-(3,3-dimethyl-2-oxobutoxy)-3-methylphenyl]-1-ethylpropyl}-N-(2-methanesulfonylethyl)-2-methylbenzamide] | 35 |  | >5000 |  |
| CCC(CC)(c1ccc(OC(C)C(O)C(C)(C)C)c(C)c1)c1ccc(C(=O)N[C@@H](C)C(=O)O)c(C)c1 (stereo partly shown) [Ex. 49, (L)-2-(4-{1-Ethyl-1-[4-(2-hydroxy-1,3,3-trimethyl-butoxy)-3-methyl-phenyl]-propyl}-2-methyl-benzoylamino)-propionic acid] |  |  |  | IC50 ([2]; 72 hr): 1000 nM |
| CCC(CC)(c1ccc(CCC(=O)C(C)(C)C)c(C)c1)c1ccc(C(=O)O)c(C)c1 [Ex. 54, 3′-[4-(3-oxo-4,4-dimethylpentyl)-3-methylphenyl]-3′-[4-carboxyl-3-methylphenyl]pentane] | 119 |  | >3000 |  |
